Measurements taken from patent US11833125B2, “Pharmaceutical composition for controlled release of treprostinil” (Pharmosa Biopharm Inc., priority 2018, dated 2023).

Key:
[1] = In vivo pharmacokinetics study, intra-tracheal administration, plasma treprostinil by LC-MS/MS; design: species or system Sprague-Dawley rats; conditions: rat, FIGS. 1A and 1B
Experimental: In this in vivo PK study, Sprague-Dawley rats (purchased from BioLASCO Taiwan Co., Ltd.) were anaesthetized with isoflurane, and positioned securely on its back to an arched platform in a dorsal position at a 45° to 50° plane using a ribbon hooked around upper incisors. A microspray aerosol tip (Microsprayer, PennCentury, Philadelphia, USA) was inserted to the tracheal bifurcation of each rat, and a test sample (i.e., compositions in Table 2 or free treprostinil solution) was administered intra-tracheally to each rat at a given dose using a high-pressure syringe that is attached to the microspray aerosol device. […] The blood sample was then centrifuged at approximately 2500×g for 15 min and at 4±2° C. within 1 hour of collection, so as to separate the plasma from the blood cells. Approximately 0.1 mL of the obtained plasma sample from each rat was added into a new storage tube and stored in a freezer with a temperature maintained at −70±2° C. […] The obtained supernatant (150 μL) was mixed with an equal volume of H2O and analyzed by liquid chromatography-tandem mass spectrometry (LC-MS/MS) to determine the treprostinil concentration in the plasma sample of the rat. […]

[2] = tested on: Sprague Dawley rats; experiment: Safety evaluation of inhaled composition: cage-side observation of upper airway irritation; type: in vivo; conditions: nebulized, nose-only inhalation, 6 μg/kg/day for 10 days; frequency of clinical signs in 10 inhalations; n = 3
Experimental: In this study, 8 male Sprague Dawley rats (purchased from BioLASCO Taiwan Co., Ltd.) were divided into 3 groups: control group (n=2), comparative group (n=3) and experimental group (n=3). The experimental group rats and the comparative group rats were placed in restraining tubes and given nebulized treprostinil liposomal composition LB11500 from Example 2 and free treprostinil solution, respectively, at a dosage of 6 μg/kg/day for 10 days, via a 20-port nose-only Buxco inhalation exposure system (DSI, USA). An air flow carried aerosol generated by mesh vibrating nebulizer was provided to the system tower where the rats are encased in, at a rate of 10 L/min. The control group rats received no exposure to the drug.
During the study, cage-side clinical observation was performed on each rat by a single observer to record incidences of upper airway irritation due to the inhaled nebulized treprostinil liposomal composition or free treprostinil solution. Manifestations of upper airway irritation include tension, sneezing, erythematous pinnae, tremor, hunched posture, piloerection, tachypnea and labored breathing, hyperpnea and epistaxis.

Q: For CCCCC[C@H](O)CC[C@@H]1[C@H]2Cc3cccc(OCC(=O)O)c3C[C@H]2C[C@H]1O [free treprostinil, treprostinil], which “time at which plasma treprostinil concentration peaked” value [1] is on record?
A: ≤ 5 min

Q: What about the “Incidences of upper airway irritation” value [2] of the same molecule?
A: 17
